Source: patent US9714250B2, “Crystalline forms of temozolomide and the method for preparing same” (Jiangsu Tasly Diyi Pharmaceutical Co., Ltd., priority 2013, dated 2017)

Assay: High humidity test (stability)
Type: physicochemical
Settings: for Stability in the high-humidity test (conclusion) / Appearance and color / Content / Weight gain of moisture absorption / Related substances: 25° C., relative humidity 75±5%; for Stability in the high-humidity test (conclusion): 10 days; for Related substances: HPLC; for Weight gain of moisture absorption (trend): under the high-humidity condition
Experimental: In the following test, related substances were determined as follows: HPLC method was used and chromatographic conditions were as follows: C18 column using octadecylsilane bonded silica gel as the filler, isocratic elution using methanol: 0.5% glacial acetic acid solution (10:90) as the mobile phase, and detection wavelength was at 254 nm.
Crystalline Form A of Temozolomide (Form A0 prepared by the method of EXAMPLE 1) was placed in 25° C. incubator (relative humidity: 75±5%), sampled and determined on the 5th and 10th day.
Crystalline Form B of Temozolomide (Form B0 prepared by the method of EXAMPLE 6) was placed in 25° C. incubator (relative humidity: 75±5%), sampled and determined on the 5th and 10th day.
Crystalline Form C of Temozolomide (Form C prepared by the method of EXAMPLE 14) was placed in 25° C. incubator (relative humidity: 75±5%), sampled and determined on the 5th and 10th day.

Stability in the high-humidity test (conclusion) | Appearance and color (0th day) | Content (0th day) [%] | Weight gain of moisture absorption (0th day) [%] | Related substances (0th day) | Appearance and color (5th day) | Content (5th day) [%] | Weight gain of moisture absorption (5th day) [%] | Related substances (5th day) | Appearance and color (10th day) | Content (10th day) [%] | Weight gain of moisture absorption (10th day) [%] | Related substances (10th day) | Weight gain of moisture absorption (trend) | SMILES
stable | White powder | 99.97 | 0 | Not detected | White powder | 99.63 | 0.37 | Not detected | White powder | 99.57 | 0.52 | Not detected | slightly increased | Cn1nnc2c(C(N)=O)ncn2c1=O [Form B, Temozolomide]
stable | White powder | 99.94 | 0 | Not detected | White powder | 99.73 | 0.32 | Not detected | White powder | 99.52 | 0.51 | Not detected | slightly increased | Cn1nnc2c(C(N)=O)ncn2c1=O [Form A, Temozolomide]
stable | White powder | 99.91 | 0 | Not detected | White powder | 99.85 | 0.29 | Not detected | White powder | 99.63 | 0.47 | Not detected | slightly increased | Cn1nnc2c(C(N)=O)ncn2c1=O [Form C, Temozolomide]
